The values below come from paper PMC5478727, “A Novel Small Molecule GDNF Receptor RET Agonist, BT13, Promotes Neurite Growth from Sensory Neurons in Vitro and Attenuates Experimental Neuropathy in the Rat” (Frontiers in Pharmacology, 2017).

In assay [1] the test system is adult rat lumbar DRG sensory neurons. In words: Neurite outgrowth from cultured DRG neurons. The class given is cell-based. As to conditions: NGF 10 ng/ml. The method, then: Cultured lumbar DRG (L3–L5) neurons were prepared using a published method (O'Mullane et al., [2013]). After plating onto poly-L-ornithine (5 μg/ml)/laminin (5 μg/ml) coated coverslips for 1 h, DRG neurons were cultured for 24–30 h in fresh Neurobasal A/B27. GFLs, BT13, NGF, and vehicle control were added at the start of this period for a 24–30 h treatment, except when preceded by pre-treatment (1 h) with inhibitors (50 μM LY294002; 2 μM SU6656, […]; Biomol Research Laboratories, Plymouth Meeting, PA, USA). DRG neurons were then fixed (4% paraformaldehyde) and processed for immunocytochemistry with 1:200 Mouse anti-β III tubulin/AlexaFluor 594 (Sigma-Aldrich Cat# T8660 RRID:AB_477590) and 1:5,000 rabbit anti-calcitonin gene-related peptide/AlexaFluor 488 (Sigma-Aldrich Cat# C8198 RRID:AB_259091) and DAPI for nuclear staining (0.5 μg/ml, Molecular Probes). Image analysis of multichannel 12 bit Zeiss .ZVI or .TIF files (captured with a Zeiss Imager.M1/MRm camera/Zen software; Carl Zeiss Australia, North Ryde, NSW, Australia) was then performed by a researcher blinded to the experimental condition. Neurite initiation was measured by a single parameter (proportion of neurons with neurites longer than the soma diameter). Neurite elongation was measured by batch processing (HCA-Vision software; CSIRO Mathematical and Information Sciences, North Ryde, NSW, Australia) to obtain four parameters—Root number: number of primary neurites; Maximum length: length of longest neurite; Branch points: number of neurite branch points; and Total length: sum of neurite lengths (Kalous and Keast, [2010]; Kalous et al., [2012]). The number of neurons of each immunocytochemical class counted on each coverslip (technical replicates) was 50 for neurite initiation and 20 for neurite elongation. A minimum of three cultures from different rats (biological replicates) were analyzed for each treatment group.

Assay [2] relates to Akt and Erk phosphorylation in MG87TrkA. In words: Erk1/2 and Akt phosphorylation assay in MG87TrkA cells. As to conditions: BT13 10–100 μM, NGF positive control. The class given is cell-based, murine. As for the experimental part: (§1) MG87RET, MG87TrkA, or MG87TrkB were plated on 35 mm tissue culture dishes 1–2 days before the experiment to achieve 90–95% of confluency of the cells at the day of stimulation with tested substances. If necessary, cells were transfected with 4 μg/well of GFRα1-, GFRα3-, or green fluorescent protein (GFP)-expressing plasmid using Lipofectamine 2000 (Invitrogen) for DNA delivery as described by manufacturer. Before the experiment cells were starved in serum-free DMEM containing 15 mM HEPES, pH 7.2 and 1% DMSO for 4 h and stimulated with BT13 or neurotrophic factors. Then cells were washed once with ice-cold PBS containing 1 mM Na3VO4 and 1 mM NaF and lysed on ice in 1 ml per well of RIPA-modified buffer (50 mM Tris-HCl, pH 7.4, 150 mM NaCl, 1 mM EDTA, 1% NP-40, 1% TX-100, 10% glycerol, EDTA-free protease inhibitor cocktail (Roche), 1 mM Na3VO4, 2.5 mg/ml of sodium deoxycholate, 1 mM NaF). Plates were incubated at +4°C on the horizontal shaker for 30 min with vigorous shaking. Afterwards, 80–100 μl aliquot was taken from each well to prepare whole cell lysates. This aliquot was mixed with equal volume of 2x Laemmli loading buffer (4% SDS, 20% glycerol, 10% 2-mercaptoethanol, 0.004% bromphenol blue, 0.125 M Tris HCl, pH 6.8) and boiled for 10 min at 100°C. Remaining cell lysates were used for immunoprecipitation of RET or Trk receptors. […]

For the next assay, the system named is TrkA. The assay can be described thus: TrkA phosphorylation assay in MG87TrkA cells. The class given is cell-based. The settings on record: BT13 10–100 μM, NGF positive control. The method, then: as §1
In assay [3] the target is COMT (catechol-O-methyl transferase). The assay can be described thus: CEREP COMT (catechol-O-methyl transferase). The class given is biochemical. The settings on record: reference compound; Cat. No. 0457.
The target in assay [4] is T1, Protein Serine/Threonine Phosphatase, PP2A (Homo sapiens, UniProt P67775).
T1 construct: purchased CEREP (contract assay) 3953
T1 sequence (P67775 whole entry): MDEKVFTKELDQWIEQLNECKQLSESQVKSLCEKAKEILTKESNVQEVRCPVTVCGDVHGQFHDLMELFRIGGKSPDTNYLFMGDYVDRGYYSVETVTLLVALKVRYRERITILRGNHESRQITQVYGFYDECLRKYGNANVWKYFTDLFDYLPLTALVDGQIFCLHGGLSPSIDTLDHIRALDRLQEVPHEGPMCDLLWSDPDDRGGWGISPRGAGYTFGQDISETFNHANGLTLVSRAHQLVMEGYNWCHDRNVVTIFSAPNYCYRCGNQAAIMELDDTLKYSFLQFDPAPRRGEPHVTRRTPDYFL
In words: CEREP Protein Serine/Threonine Phosphatase, PP2A. The class given is biochemical.

For assay [5], the system named is Akt and Erk phosphorylation in MG87TrkB. The assay can be described thus: Erk1/2 and Akt phosphorylation assay in MG87TrkB cells. The class given is cell-based, murine. The settings on record: BT13 10–100 μM, BDNF positive control. The method, then: as §1
The next assay deals with T2, TrkB (Rattus norvegicus, UniProt Q63604).
T2 construct: expressed in transfected cells; host or cells: MG87 murine fibroblasts (MG87TrkB)
T2 sequence (Q63604 32-821): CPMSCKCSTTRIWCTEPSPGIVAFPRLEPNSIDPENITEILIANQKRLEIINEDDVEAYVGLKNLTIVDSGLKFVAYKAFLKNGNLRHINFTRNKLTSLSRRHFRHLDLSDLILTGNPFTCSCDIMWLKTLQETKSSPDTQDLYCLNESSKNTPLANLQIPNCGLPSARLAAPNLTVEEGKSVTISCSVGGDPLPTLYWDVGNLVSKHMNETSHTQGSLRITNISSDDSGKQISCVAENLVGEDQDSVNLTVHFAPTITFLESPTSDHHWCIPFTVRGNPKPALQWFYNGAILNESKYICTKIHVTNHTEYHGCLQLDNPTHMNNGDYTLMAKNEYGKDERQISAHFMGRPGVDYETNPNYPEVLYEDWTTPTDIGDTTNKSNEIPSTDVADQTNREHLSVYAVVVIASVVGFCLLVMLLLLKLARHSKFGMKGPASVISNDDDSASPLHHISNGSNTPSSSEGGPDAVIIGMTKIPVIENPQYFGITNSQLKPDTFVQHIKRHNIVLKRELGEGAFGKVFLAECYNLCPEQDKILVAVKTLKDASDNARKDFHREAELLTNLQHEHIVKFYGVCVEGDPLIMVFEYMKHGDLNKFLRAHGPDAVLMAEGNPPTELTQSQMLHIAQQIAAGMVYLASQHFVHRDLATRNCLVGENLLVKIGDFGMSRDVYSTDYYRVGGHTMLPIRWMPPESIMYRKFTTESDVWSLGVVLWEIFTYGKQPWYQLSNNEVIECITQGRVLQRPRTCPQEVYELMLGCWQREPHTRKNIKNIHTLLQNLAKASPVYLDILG
The assay can be described thus: TrkB phosphorylation assay in MG87TrkB cells. As to conditions: BT13 10–100 μM, BDNF positive control. The class given is cell-based. As for the experimental part: as §1

Setting [6] is: CGRP-positive neurons, vs control, BT13 100 ng/ml.

On to nerve growth factor [NGF], for which, in assay [1] (CGRP-negative neurons, ARTN 30 ng/ml, BT13 100 ng/ml), the “neurite initiation or extension” value is “no effect”. For the same molecule, the neurite initiation entry in assay [1] (CGRP-positive neurons, ARTN 30 ng/ml, BT13 100 ng/ml, overnight) is reported as “significantly increased”. Besides, the “neurite elongation, root number, mean difference” value in assay [1] (CGRP-positive neurons, vs control) was 3 ± 1. In assay [1] (setting [6]), the “neurite elongation, branch points, mean difference” value is recorded as 48 ± 3; the “neurite elongation, maximum length, mean difference” value worked out at 99 ± 8 μm; the “neurite elongation, total length, mean difference” value is on record as 1,421 ± 108 μm. Moreover, the “proportion of DRG neurons that expressed CGRP in culture” value in assay [1] (ARTN 30 ng/ml, BT13 100 ng/ml) was “did not alter”. In addition, the “Akt and Erk phosphorylation” value in assay [2] is “promoted Akt and Erk phosphorylation”. The “TrkA phosphorylation, Western blotting” value in the assay on TrkA is “responded”.
By IC50 is commonly meant the concentration at which inhibition is half-maximal. Low values mean greater potency, high ones weaker potency. Molecule `O=C(c1cc(O)c(O)c([N+](=O)[O-])c1)c1ccccc1F` [Ro 41-0960, reference compound] returned an IC50 in assay [3] of 28 nM.
The molecule `COC[C@@H]([C@H](O)[C@H](O)C(=O)NCC[C@H](C)c1nc(/C=C/C[C@@H]2O[C@]3(C[C@@H](O)[C@@H]2C)O[C@H]([C@H](C[C@H](O)[C@H](C)[C@H](O)[C@H](C)/C=C(C)/C(C)=C/C=C/C(C)=C\C#N)OC)[C@H](OP(=O)(O)O)C3(C)C)co1)N(C)C` [Calyculin A, reference compound] came in with an IC50 in assay [4] of 0.49 nM. This lies in the sub-nanomolar range.

B1: brain-derived neurotrophic factor (protein, UniProt P23560 19-247, looked up)
Neurotrophic factor BDNF …: APMKEANIRGQGGLAYPGVRTHGTLESVNGPKAGSRGLTSLADTFEHVIEELLDEDQKVRPNEENNKDADLYTSRVMLSSQVPLEPPLLFLLEEYKNYLDAANMSMRVRRHSDPARRGELSVCDSISEWVTAADKKTAVDMSGGTVTVLEKVPVSKGQLKQYFYETKCNPMGYTKEGCRGIDKRHWNSQCRTTQSYVRALTMDSKKRIGWRFIRIDTSCVCTLTIKRGR
notes: neurotrophin, natural ligand of TrkB
B1: in assay [5], the “Akt and Erk phosphorylation” value was “promoted Akt and Erk phosphorylation”. For the same molecule, the “TrkB phosphorylation, Western blotting” value in the assay with TrkB was “responded”.
